# Measurements published in PubChem BioAssay (NCI).
#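 Values below derive from 48-hour exposures of cells grown in 96-well plates, with endpoints linearly interpolated between the two concentrations bracketing the appropriate inhibition level. At the GI50, growth is halved. TGI denotes the concentration required for complete inhibition of growth.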
# What was measured:
# Assay in all cases: NCI anticancer screen, dose series, 48 h
# CCRF-CEM leukemia = tested on: CCRF-CEM leukemia
# MDA-MB-231 breast = tested on: MDA-MB-231 breast
# KM12 colon = tested on: KM12 colon
# NCI/ADR-RES ovarian = tested on: NCI/ADR-RES ovarian
# CAKI-1 renal = tested on: CAKI-1 renal
# HCC-2998 colon = tested on: HCC-2998 colon
# SF-539 CNS = tested on: SF-539 CNS
# SNB-75 CNS = tested on: SNB-75 CNS
SMILES,TGI (CCRF-CEM leukemia) [µM],TGI (MDA-MB-231 breast) [µM],TGI (KM12 colon) [µM],TGI (NCI/ADR-RES ovarian) [µM],TGI (CAKI-1 renal) [µM],TGI (HCC-2998 colon) [µM],TGI (SF-539 CNS) [µM],TGI (SNB-75 CNS) [µM],GI50 (SNB-75 CNS) [µM]
COC(=O)C1(C#N)C(C)(C)N=C(c2ccccc2)C12CCCCC2 (stereo not drawn),> 100,> 100,> 100,> 100,> 100,> 100,> 100,,
O=C1CSC(c2ccccc2[N+](=O)[O-])N1c1ccc(-c2ccc(-n3c(-c4ccccc4)nc4ccccc4c3=O)cc2)cc1 (stereo not drawn),> 100,> 100,> 100,> 100,> 100,> 100,> 100,61.3,
CCOC(=O)C1=NN(c2ccc([N+](=O)[O-])cc2)[C@@]2(C)C[C@]3(c4ccccc4)N(c4ccc([N+](=O)[O-])cc4)N=C(C(=O)OCC)N3c3ccccc3N12,> 100,84.4,> 100,> 100,> 100,> 100,> 100,> 100,
COc1cc(/C=N/n2c(-c3ccccc3)nn(C(C)=O)c2=O)cc(OC)c1OC,> 100,64.3,> 59.5,> 42.6,> 100,16.3,8.54,21.1,
C=C(CCC/C(C)=C/C=C/[C@@H](C)CCCc1ccoc1)C[C@@H]1OC(=O)[C@H](C)[C@@H]1O,24.6,16.9,16.1,19.9,20.1,24.8,19.4,19,
N#Cc1c(-c2ccc(Cl)cc2)[nH]c(=O)n(C2OC(CO)C(O)C(O)C2O)c1=O (stereo not drawn),> 100,> 100,> 100,> 100,> 100,> 100,> 100,> 100,
C/C(CC(O)(/C=N/O)c1ccccc1)=N/O (stereo not drawn),> 100,> 100,> 100,> 100,> 100,> 100,> 100,,
S=C1CCSc2c(ccc3ccccc23)N1,> 100,> 100,> 100,> 100,> 100,,,> 100,
N#CC(Cc1ccccc1)N(CCC1=CCCCC1)Cc1ccccc1 (stereo not drawn),,> 100,> 100,> 100,> 100,> 100,,> 100,
CC[C@@]1(C)CCC2c3ccc(O)cc3CC[C@H]2C1C (stereo partly drawn),33.4,,36.7,35.7,35.7,27.1,35.4,37.2,
O=C(c1ccccc1)c1ccc2[nH]c(-c3c(Cl)c(Cl)c(Cl)c(Cl)c3C(=O)N/N=C/c3cccc(Oc4ccccc4)c3)nc2c1,> 100,> 100,> 100,> 100,> 100,,> 100,> 100,
COc1ccc(Cc2nnc(Nc3ccc(Br)cc3)[nH]c2=O)cc1OC,> 100,> 100,> 100,> 100,> 100,> 100,> 100,> 100,
CC(=O)Nc1c(C)cc2c(nc3n2CCC3OC(C)=O)c1[N+](=O)[O-] (stereo not drawn),> 100,> 100,> 100,> 100,> 100,,> 100,> 100,
CN1C(=O)C2(C=CC(O)CC2)c2ccccc21 (stereo not drawn),> 100,> 100,> 100,> 100,> 100,> 100,,> 100,
CN(C)CCn1c(=O)c2ccc(NCCN3CCNCC3)c3c(=O)c4ccccc4n(c1=O)c23,4.4,11.8,16.4,30,10.2,12.8,9,10.1,
COc1ccc(N2C(=O)C3c4[nH]c5ccc(Br)cc5c4C4CCC(C(C)(C)C)CC4C3C2=O)cc1 (stereo not drawn),> 100,> 100,> 100,> 100,> 100,> 100,> 100,,
Cn1c(=O)c2c(nc3n2CCCC(=O)N3CC(O)CCl)n(C)c1=O (stereo not drawn),> 100,,> 100,> 100,> 100,> 100,,> 100,
NC(=O)Cc1nc2c(N)ncnc2n1C1OC(CO)C(O)C1O (stereo not drawn),> 100,> 100,> 100,> 100,> 100,> 100,> 100,,
Cc1ccc(/C(O)=C/C(=O)C(=O)NC23CC4CC(CC(C4)C2)C3)cc1,> 10,> 10,> 10,,> 10,> 10,,> 10,

SMILES,TGI (CCRF-CEM leukemia) [µM],TGI (MDA-MB-231 breast) [µM],TGI (KM12 colon) [µM],TGI (NCI/ADR-RES ovarian) [µM],TGI (CAKI-1 renal) [µM],TGI (HCC-2998 colon) [µM],TGI (SF-539 CNS) [µM],TGI (SNB-75 CNS) [µM],GI50 (SNB-75 CNS) [µM]
O=C(CN1CCOCC1)c1ccc2c(c1)oc(=O)n2CCN1CCOCC1,> 100,> 100,> 100,> 100,> 100,,> 100,> 100,
CC(C)C(=O)Nc1cc(C(F)(F)F)ccc1[N+](=O)[O-],> 100,> 100,> 100,> 100,> 100,> 100,> 100,,
COc1ccc(CCCNC(=O)c2cc(OC)c(OC)cc2CCO)cc1OC,,> 100,> 100,> 100,> 100,> 100,> 100,> 100,
O=[N+]([O-])C(=C(N1CCOCC1)N1CCOCC1)/C(Cl)=C(\Cl)Br,9.49,31.8,76.3,52.9,,> 100,57.9,33.2,
O=c1[nH]nc(Cc2c[nH]c3ccccc23)o1,> 100,> 100,> 100,> 100,> 100,> 100,> 100,,
CCCCCCCCCCCCCCCCCCNC(=S)/N=C\C1=C(O)c2ccccc2C1=O,21.5,24.6,22.7,31.7,31.2,6.4,36.7,,
CC(=O)Nc1ccc2c3c(cc(O)c2c1)N(C(=O)CCCCCCC(=O)N1CC(CCl)c2c1cc(O)c1cc(NC(C)=O)ccc21)CC3CCl (stereo not drawn),,,12.7,> 74.6,0.894,,0.0413,< 0.01,
O=C(Nc1ccc2[nH]c(C(=O)N3CC(CCl)c4c3cc([N+](=O)[O-])c3ccccc43)cc2c1)Nc1ccc2[nH]c(C(=O)N3CC(CCl)c4c3cc([N+](=O)[O-])c3ccccc43)cc2c1 (stereo not drawn),36.9,> 100,> 100,> 100,> 100,,> 100,> 100,
NCCCC[C@H](N)C(=O)Nc1ccc(-c2nc3ccccc3s2)cc1,23.6,37.6,34.9,59.7,> 100,81.5,,35.2,
[N-]=[N+]=NC(c1cn(C2CC(O)C(CO)O2)c(=O)[nH]c1=O)C(Cl)I (stereo not drawn),,> 100,> 100,> 100,,> 100,> 100,> 100,
CC(C)[C@H](NC(=O)[C@H](N)Cc1ccc(N(CCCl)CCCl)cc1)C(=O)O,> 100,> 100,> 100,> 100,> 100,> 100,,> 100,
CCOc1ccc(N/C(=C(/C(Cl)=C(/Cl)N2CCCCC2)[N+](=O)[O-])n2nnc3ccccc32)cc1,,44.5,31.6,43.5,28.4,59.2,36.9,50.6,
C=CCN(C(=O)OC(C)(C)C)[C@H](C)C(=O)N[C@@H](C)C(=O)OC,> 100,> 100,> 100,> 100,> 100,,> 100,,
Cc1ccc(O)c(C2=CC(c3cccc(Cl)c3)SC(N)=N2)c1 (stereo not drawn),83.1,,89.6,> 100,> 100,33.4,53.1,,
CC1(C)OC(=O)N(c2ccccc2)C12C=Cc1cccc([N+](=O)[O-])c1O2 (stereo not drawn),> 100,> 100,> 100,> 100,> 100,> 100,,> 100,
O=C1c2ccccc2-c2nnc3c(c21)-c1ccccc1C3,> 100,> 100,> 100,> 100,> 100,,> 100,> 100,
CC(=O)OCC1OC(n2c(-c3ccccc3)c(C(C)=O)c(-c3cccc4ccccc34)c(C#N)c2=S)C(OC(C)=O)C(OC(C)=O)C1OC(C)=O (stereo not drawn),> 100,> 100,> 100,> 100,,> 100,> 100,> 100,0.022
CC(C)=CCC/C(C)=C/CC/C(C)=C/CC/C(C)=C/CC/C(C)=C/CC/C(C)=C/CC/C(C)=C/CC/C(C)=C/CC/C(C)=C/CO,> 100,> 100,> 100,,> 100,> 100,> 100,> 100,
